Measurements published in patent publication US20250295748A1 (priority 2020, published 2025).
*1 amine or outer side, *2 acyl side, *3 side chain or, on linkers, in order; H or OH if unused. Where a SMILES comes first, the peptide text is derived from it. Bridges are numbered along the chain shown (N, C = ends). [ ]: non-standard residue; d: D form. X1 = CC(C)CCCCCCCCC[C@H](CC(=O)[*:1])O[*:2]

Target: Bovine Serum Albumin (BSA) (Bos taurus, UniProt P02769)
Assay: Thermal shift assay (SYPRO-Orange) of BSA
Format: biochemical
Details: FIG. 8, BSA 0.1 mg/ml, 1×PBS

Bovine Serum Albumin (BSA), sequence (P02769 25-607): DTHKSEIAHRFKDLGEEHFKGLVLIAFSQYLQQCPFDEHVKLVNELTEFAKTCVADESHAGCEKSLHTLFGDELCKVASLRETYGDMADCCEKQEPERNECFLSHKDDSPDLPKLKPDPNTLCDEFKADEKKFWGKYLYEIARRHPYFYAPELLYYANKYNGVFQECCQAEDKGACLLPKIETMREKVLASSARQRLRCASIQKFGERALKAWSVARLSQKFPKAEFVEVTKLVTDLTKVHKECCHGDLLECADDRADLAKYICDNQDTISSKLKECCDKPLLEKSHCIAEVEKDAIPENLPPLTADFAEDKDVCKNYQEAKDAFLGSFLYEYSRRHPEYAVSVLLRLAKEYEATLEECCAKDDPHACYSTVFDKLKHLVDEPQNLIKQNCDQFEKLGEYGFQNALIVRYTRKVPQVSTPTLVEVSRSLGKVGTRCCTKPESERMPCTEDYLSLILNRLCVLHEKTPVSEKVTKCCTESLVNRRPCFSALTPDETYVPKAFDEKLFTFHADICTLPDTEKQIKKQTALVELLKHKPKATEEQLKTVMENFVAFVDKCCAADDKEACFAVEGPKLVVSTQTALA

## CC(C)CCCCCCCCC[C@@H]1CC(=O)N[C@@H](CCC(=O)O)C(=O)N[C@@H](CC(C)C)C(=O)N[C@H](CC(C)C)C(=O)N[C@@H](C(C)C)C(=O)N[C@@H](CC(=O)O)C(=O)N[C@H](CC(C)C)C(=O)N[C@@H](CC(C)C)C(=O)O1 [Surfactin] (EL[dL]VD[dL]L; linker N-C via X1)
  denaturing activity against BSA (decrease in Tm vs concentration): potent at denaturing BSA but less than 277-SEC
